Series [1] can be described thus: Protein binding in mouse plasma at 10 uM after 4 hrs by LC-MS/MS analysis. It counts as ADME, cell-free. Conditions: read-out: PPB (converted).
Series [2] in a line: Intrinsic clearance in mouse liver microsomes at 1 uM measured up to 30 mins by LC-MS/MS analysis. Conditions: read-out: CLH. It counts as ADME, microsome.
The subject of series [3] is Canis familiaris. The series is described as follows: AUCt in Beagle dog at 10 mg/kg, po via gavage by UPLC analysis. It counts as ADME, organism-based, Canis lupus familiaris. Conditions: in vivo.
Series [4] in a line: Thermodynamic solubility of the compound in phosphate buffer at pH 7.4 after 24 hrs by HPLC-UV analysis. Conditions: read-out: Therm_solubility. It counts as physicochemical.
Series [5] in a line: Intrinsic clearance in human liver microsomes at 1 uM measured up to 30 mins by LC-MS/MS analysis. It counts as ADME, microsome. Conditions: read-out: CLH. On the technique in general: Liver microsomes are vesicles of endoplasmic reticulum, rich in cytochrome P450 enzymes.
The nature of series [6]: Intrinsic clearance in rat liver microsomes at 1 uM measured up to 30 mins by LC-MS/MS analysis. It counts as ADME, microsome. Conditions: read-out: CLH.
Series [7] has as its target T1, Cytochrome P450 2C8 (Homo sapiens, UniProt P10632).
T1 sequence (P10632 whole entry): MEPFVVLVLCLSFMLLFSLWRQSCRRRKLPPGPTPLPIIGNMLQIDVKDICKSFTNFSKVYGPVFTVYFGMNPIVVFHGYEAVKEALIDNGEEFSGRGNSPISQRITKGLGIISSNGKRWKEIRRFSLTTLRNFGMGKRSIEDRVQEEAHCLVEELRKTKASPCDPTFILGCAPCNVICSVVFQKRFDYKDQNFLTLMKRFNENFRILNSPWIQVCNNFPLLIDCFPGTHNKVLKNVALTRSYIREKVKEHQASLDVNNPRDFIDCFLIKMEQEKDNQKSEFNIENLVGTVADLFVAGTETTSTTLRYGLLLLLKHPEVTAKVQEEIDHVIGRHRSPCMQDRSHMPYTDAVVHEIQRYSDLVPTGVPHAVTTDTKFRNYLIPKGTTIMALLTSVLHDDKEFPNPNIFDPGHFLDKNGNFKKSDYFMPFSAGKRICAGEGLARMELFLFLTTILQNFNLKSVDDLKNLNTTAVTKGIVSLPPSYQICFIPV
Put plainly: Inhibition of CYP2C8 in human liver microsomes using amodiaquine as substrate after 10 mins in presence of NADPH by LC-MS/MS analysis. It counts as ADME.

The target in series [8] is Cytochrome P450 3A4 (Homo sapiens, UniProt P08684). The series is described as follows: Inhibition of CYP3A4 in human liver microsomes using midazolam as substrate after 10 mins in presence of NADPH by LC-MS/MS analysis. It counts as ADME.
Cytochrome P450 3A4, sequence (P08684 whole entry): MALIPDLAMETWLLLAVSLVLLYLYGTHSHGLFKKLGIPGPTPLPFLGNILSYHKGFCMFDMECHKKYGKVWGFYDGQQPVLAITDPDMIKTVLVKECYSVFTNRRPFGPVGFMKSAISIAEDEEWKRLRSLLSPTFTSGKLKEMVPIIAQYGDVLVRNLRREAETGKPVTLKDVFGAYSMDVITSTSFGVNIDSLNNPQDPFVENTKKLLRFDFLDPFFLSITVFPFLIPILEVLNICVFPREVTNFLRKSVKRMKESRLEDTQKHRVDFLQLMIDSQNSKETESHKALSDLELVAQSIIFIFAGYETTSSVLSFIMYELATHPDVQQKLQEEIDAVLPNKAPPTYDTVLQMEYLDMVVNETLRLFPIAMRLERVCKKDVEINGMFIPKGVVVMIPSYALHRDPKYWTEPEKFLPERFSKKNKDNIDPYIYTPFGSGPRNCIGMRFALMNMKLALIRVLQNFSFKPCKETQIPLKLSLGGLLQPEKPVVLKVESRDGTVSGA
A short description of series [9]: Protein binding in rat plasma at 10 uM after 4 hrs by LC-MS/MS analysis. It counts as ADME, cell-free. Conditions: read-out: PPB (converted).
Series [10] deals with 786-0. The series is described as follows: Antitumor activity against human 786-O cells xenografted in SCID/Biege mouse assessed as tumor regression at 10 mg/kg, po bid for 21 days. It counts as functional, organism-based. (Xenograft models place foreign cells or tissue in a host animal.)
Series [11] relates to Mus musculus. Put plainly: Toxicity in SCID/Biege mouse xenografted with human 786-O cells assessed as morbidity at 10 mg/kg, po bid for 21 days. It counts as organism-based. Conditions: in vivo, 504 h.
The subject of series [12] is Mus musculus. The series is described as follows: Toxicity in SCID/Biege mouse xenografted with human 786-O cells assessed as effect on body weight at 10 mg/kg, po bid for 21 days. It counts as organism-based. Conditions: in vivo, 504 h.
The subject of series [13] is Mus musculus. The series is described as follows: Minimum drug level in SCID/Biege mouse xenografted with human 786-O cells at 10 mg/kg, po bid for 3 days and measured after 12 hrs post last dose by LC-MS/MS analysis. It counts as ADME, organism-based. Conditions: in vivo.
The subject of series [14] is Rattus norvegicus. The series is described as follows: Drug metabolism in Sprague-Dawley rat assessed as formation of 3-( (4-( ( D ifluoromethyl)-1,1-dioxido-3-oxo-2,3-dihydrobenzo[b]thiophen-5-yl)oxy)-5-fluorobenzonitrile at 10 mg/kg, po by UPLC analysis. It counts as ADME, organism-based. Conditions: in vivo.
Series [15] has as its target Cytochrome P450 2C19 (Homo sapiens, UniProt P33261). The series is described as follows: Inhibition of CYP2C19 in human liver microsomes using S-mephenytoin as substrate after 20 mins in presence of NADPH by LC-MS/MS analysis. It counts as ADME.

The values below come from ChEMBL document CHEMBL4152377, “Design and Activity of Specific Hypoxia-Inducible Factor-2α (HIF-2α) Inhibitors for the Treatment of Clear Cell Renal Cell Carcinoma: Discovery of Clinical Candidate ( S)-3-((2,2-Difluoro-1-hydroxy-7-(methylsulfonyl)-2,3-dihydro-1 H-inden-4-yl)oxy)-5-fluorobenzonitrile (PT2385)” (J Med Chem, 2018).

Structures are written as SMILES. In brackets after ≈: the same amount, converted by molar mass. Activity calls are given as the source filed them. The calls are words filed in the database; no cut-off is given here.

Cytochrome P450 2C19, sequence (P33261 whole entry): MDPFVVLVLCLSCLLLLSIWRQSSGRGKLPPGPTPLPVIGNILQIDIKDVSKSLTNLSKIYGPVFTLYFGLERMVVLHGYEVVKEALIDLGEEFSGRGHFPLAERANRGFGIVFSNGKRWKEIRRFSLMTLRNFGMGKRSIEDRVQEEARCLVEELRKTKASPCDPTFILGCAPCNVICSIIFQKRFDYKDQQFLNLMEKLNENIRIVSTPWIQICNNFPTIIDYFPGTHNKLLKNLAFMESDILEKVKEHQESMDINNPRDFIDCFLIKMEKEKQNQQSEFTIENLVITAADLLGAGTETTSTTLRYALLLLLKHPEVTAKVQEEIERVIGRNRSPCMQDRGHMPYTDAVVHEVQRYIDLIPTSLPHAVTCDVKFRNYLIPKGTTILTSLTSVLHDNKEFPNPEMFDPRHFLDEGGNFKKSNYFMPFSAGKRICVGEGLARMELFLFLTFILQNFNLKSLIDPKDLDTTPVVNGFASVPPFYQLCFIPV

`N#Cc1cc(F)cc(Oc2ccc3c(c2C(F)F)[C@@H](O)C(F)(F)S3(=O)=O)c1`: the fraction unbound at 4 h, 10 µM in series [1] is 0.11; in series [9], 0.15. Moreover, the CLint scaled at 1 µM in [2] is 5.9 mL/min/kg; in [5], less than 3 mL/min/kg; in [6] it was 9.1 mL/min/kg. Also, the AUCt in series [3] was determined as 12.6 µM·h. Also, the solubility thermodynamic at 24 h in series [4] is 126 µM (≈ 51.1 µg/mL). Moreover, the IC50 in series [7] is greater than 50 µM; in [8], 13.3 µM. Also, the outcome in [10] was Active. Moreover, the Activity result in series [11] and in [12] was “Non-Toxic” each time. Further, in [13], the Drug uptake entry is recorded as “Active”. Further, the Drug metabolism result in series [14] is listed as “Metabolite_Detected”.
With `CS(=O)(=O)c1ccc(Oc2cc(F)cc(C#N)c2)c2c1[C@H](O)C(F)(F)C2`, the fraction unbound at 4 h, 10 µM in series [1] was 0.26; in [9], 0.29. Moreover, the CLint scaled at 1 µM in series [2] came out at 19.9 mL/min/kg; in series [5], 4.7 mL/min/kg; in series [6] it was 22.6 mL/min/kg. In series [3], this molecule gave an AUCt of 6.2 µM·h. In addition, the solubility thermodynamic at 24 h in [4] was determined as 59 µM (≈ 22.6 µg/mL). Also, the IC50 is greater than 50 µM in [7], greater than 50 µM in series [8] and 46 µM in [15]. Further, the result in [10] was Active. The Activity entry in series [11] and in series [12] was “Non-Toxic” throughout. The Drug uptake result in series [13] is on record as “Active”.

As usually defined, the IC50 is the concentration that inhibits the measured activity by half.
